Residues, ends and D or L forms follow the SMILES beside them.
How the values were obtained:
[1] = tested on: HBsAg; assay: Western blot of intracellular HBsAg in HepG2.2.15 cell lysates; type: cell-based, Hepatitis B virus; conditions: 10 μM, HepG2.2.15 cell lysate
Method: (§1) Cells were resuspended with radioimmunoprecipitation (RIPA) assay buffer (50 mM Tris-HCl (pH 7.5), 150 mM sodium chloride, 1% Nonidet P40, and 0.5% sodium deoxycholate) with phenylmethylsulfonyl fluoride (PMSF) and incubated on ice for 30 min for fully lysis. Cell lysates were electrophoresed in sodium dodecyl sulfate-polyacrylamide (SDS) gels and transferred to nitrocellulose membranes (Millipore, Darmstadt, Germany). The antibodies used for probing were as follows: mouse monoclonal anti-HBsAg (1:200 dilution, Abcam, Cambridge, UK), rabbit polyclonal anti-HBV core (1:500 dilution, Dako-Cytomation, Carpinteria, CA, USA), mouse monoclonal anti-Hep B xAg (1:200 dilution, Santa Cruz Biotechnology, Dallas, TX, USA), mouse monoclonal anti-Hep B Pol (1:200 dilution, Santa Cruz Biotechnology, Dallas, TX, USA), and anti-β-actin (1:5000 dilution, Santa Cruz Biotechnology, Dallas, TX, USA) were used as primary antibodies, and the secondary antibodies were conjugated to horseradish peroxidase (HRP).

[2] = tested on: HepG2.2.15 cells; assay: MTT cytotoxicity assay, HepG2.2.15; type: cell-based, human; conditions: 48 h, 0 to 200 μM, five repetitions
Method: Cells were seeded in 96-well plates (10^4 cells per well) and cultured in DMEM containing 10% FBS in 5% CO2 at 37 °C for 12 h. Then, peptides were added to the medium in a serial of concentrations. The concentrations ranged from 0 to 200 μM. Five repetitions were set for each concentration. After 48 h of incubation, 20 μL of MTT solution (5 mg/mL in PBS buffer; Invitrogen, Foster, CA, USA) was added to the medium in each well, and the plate was incubated in 5% CO2 at 37 °C for 4 h. Then, the medium was replaced by 100 μL DMSO. To completely dissolve the precipitated crystal purple formazan, the plate was then gently shaken for 10 min at room temperature. The absorbance at a wavelength of 570 nm was measured using a microplate reader (BioTek, Winooski, VT, USA).

[3] = tested on: HBV RT; assay: Western blot of intracellular HBV RT in HepG2.2.15 cell lysates; type: cell-based, Hepatitis B virus; conditions: HepG2.2.15 cell lysate
Method: as §1

[4] = tested on: HBV core; assay: Western blot of intracellular HBV core in HepG2.2.15 cell lysates; type: cell-based, Hepatitis B virus; conditions: HepG2.2.15 cell lysate
Method: as §1

[5] = tested on: HBx protein; assay: Western blot of intracellular HBx protein in HepG2.2.15 cell lysates; type: cell-based, Hepatitis B virus; conditions: HepG2.2.15 cell lysate
Method: as §1

[6] = tested on: human erythrocytes; assay: Hemolysis assay; type: cell-based; conditions: 37 °C, 1 h, absorbance at 570 nm, 0 to 200 μM
Method: Erythrocytes were obtained from fresh human blood by centrifugation for 10 min at 1000× g. After washed by HEPES buffer for three times, erythrocytes were resuspended in normal saline and seeded in 96-well plates (10^7 cells per well). BmKDfsin4 was added in a serial of concentrations, 0.1% triton-X100 was used as positive control and normal saline was used as negative control. After incubated at 37 °C for 1 h, the supernatants were collected by centrifugation for 10 min at 1000× g. The absorbance of hemoglobin was measured at a wavelength of 570 nm.

SMILES: CC[C@H](C)[C@@H]1NC(=O)[C@H](CO)NC(=O)[C@H](CCC(N)=O)NC(=O)[C@@H]2CSSC[C@@H](C(=O)N[C@@H](Cc3ccc(O)cc3)C(=O)N[C@@H](CCCNC(=N)N)C(=O)O)NC(=O)[C@H](C(C)C)NC(=O)[C@@H]3CSSC[C@H](NC(=O)[C@H](CCC(N)=O)NC(=O)CNC(=O)[C@H](CCC(N)=O)NC(=O)[C@H](CC(N)=O)NC(=O)[C@H](Cc4ccccc4)NC(=O)[C@@H]4CCCN4C(=O)[C@@H](NC(=O)CNC(=O)[C@H](Cc4ccccc4)NC(=O)CN)CSSC[C@H](NC(=O)[C@H](Cc4ccc(O)cc4)NC(=O)CNC(=O)CNC(=O)[C@H](CCCNC(=N)N)NC(=O)[C@H](CCCNC(=N)N)NC(=O)[C@H](CCCNC(=N)N)NC1=O)C(=O)N[C@@H](CC(=O)O)C(=O)NCC(=O)N[C@@H](Cc1ccccc1)C(=O)N[C@@H](CC(C)C)C(=O)N[C@@H](CCCCN)C(=O)N[C@@H]([C@@H](C)O)C(=O)N[C@@H](CCCNC(=N)N)C(=O)N3)C(=O)N[C@@H](Cc1c[nH]cn1)C(=O)N[C@@H](CCCCN)C(=O)N[C@@H](Cc1c[nH]cn1)C(=O)N2 [BmKDfsin4] (HELM PEPTIDE1{G.F.G.C.P.F.N.Q.G.Q.C.H.K.H.C.Q.S.I.R.R.R.G.G.Y.C.D.G.F.L.K.T.R.C.V.C.Y.R}$PEPTIDE1,PEPTIDE1,4:R3-25:R3|PEPTIDE1,PEPTIDE1,11:R3-33:R3|PEPTIDE1,PEPTIDE1,15:R3-35:R3$$$V2.0; N-terminus and C-terminus assumed; bridges inferred)
- intracellular HBsAg level [1]: almost undetectable
- CC50 (50% cytotoxicity concentration), HepG2.2.15 [2]: 167.82 µM
- inhibitory activity against intracellular HBV RT [3]: significantly concentration-dependent inhibition
- inhibitory activity against intracellular HBV core [4]: significantly concentration-dependent inhibition
- intracellular HBx protein level ([5]; 5 μM): only a slight band
- intracellular HBx protein level ([5]; 10 μM): totally undetectable
- HC50 (50% hemolysis concentration) [6]: 66.85 µM

Source: paper PMC4885039, “A Scorpion Defensin BmKDfsin4 Inhibits Hepatitis B Virus Replication in Vitro” (Toxins, 2016)
